Earlier results in paper PMC11267572, “A Repurposed Drug Interferes with Nucleic Acid to Inhibit the Dual Activities of Coronavirus Nsp13” (ACS Chemical Biology, 2024).

Test system: SARS-CoV-2 Omicron variant
Set-up: method as in PMID 36899912
Conditions: bronchial epithelial cells; cited from earlier work

O=C(NCc1ccc(Oc2ccccc2)cc1)c1nc(-c2cc(Br)c(O)c(Br)c2)no1 [IOWH-032]
inhibition of viral replication: micromolar inhibition
